Data as given in patent US20220144812A1, “QUINOLINE DERIVATIVES AND THEIR USE FOR THE TREATMENT OF CANCER” (Epizyme, Inc., priority 2019, published 2022).
Read-outs that look alike come from different tables or passages of the source.

What was measured:
[1] = test system: H3K18Ac in HB-CLS-2 cells; experiment: H3K18AC in-cell western (ICW) assay; assay type: cell-based; details: read-out: CREBBP ICW IC50
Summary of the method: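 HB-CLS-2 cells seeded 16–24 hours before 2 hr compound treatment at 37° C, 5% CO2, then methanol-fixed. H3K18Ac detected with rabbit monoclonal primary (overnight, 4° C) and 800CW anti-rabbit secondary; DRAQ5 stained DNA. Plates imaged at 700 and 800 nm for integrated intensity; IC50 in μM.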

[2] = test system: 647V cells; experiment: High throughput proliferation (HTP) assay; assay type: cell-based; details: read-out: CREBBP HTP IC50
Description: The following example describes methods and materials relating to a high throughput proliferation (HTP) assay. IC50 values (micromolar) are summarized in Table 1, Table 2, and Table 3 under the column labeled: “CREBBP HTP IC50 (micromolar).”
MATERIALS: 647V cell line, Dulbecco's MEM, penicillin-streptomycin, heat inactivated fetal bovine serum, D-PBS, and CellTiter-Glo were commercially available.
647V adherent cells were maintained in complete growth medium (Dulbecco's MEM supplemented with 15% v/v heat inactivated fetal bovine serum) and cultured at 37° C. under 5% CO2.
METHOD: Measurement of the effect of compound in High Throughput Proliferation (HTP) assays was performed as follows: Exponentially growing 647V cells were plated, in triplicate, in 384-well plates at the appropriate cell density in a final volume of 50 μl. Cells were incubated in the presence of increasing concentrations of compound. Viable cell number was determined at day 7 by addition of 35 μl CellTiter-Glo to each well of the plate, incubated in the dark for 30 minutes, and read on a PerkinElmer EnVision instrument to enumerate the number of cells.

[3] = molecular target: T1, CREBBP (1084-1701) (Homo sapiens, UniProt Q92793); experiment: Biochemical assay for CREBBP (1084-1701), SAMDI; details: SAMDI, read-out: CREBBP Biochemistry IC50
T1 construct: measured in the following biochemical assay using CREBBP (1084-1701); purchased
T1 sequence (Q92793 1084-1701): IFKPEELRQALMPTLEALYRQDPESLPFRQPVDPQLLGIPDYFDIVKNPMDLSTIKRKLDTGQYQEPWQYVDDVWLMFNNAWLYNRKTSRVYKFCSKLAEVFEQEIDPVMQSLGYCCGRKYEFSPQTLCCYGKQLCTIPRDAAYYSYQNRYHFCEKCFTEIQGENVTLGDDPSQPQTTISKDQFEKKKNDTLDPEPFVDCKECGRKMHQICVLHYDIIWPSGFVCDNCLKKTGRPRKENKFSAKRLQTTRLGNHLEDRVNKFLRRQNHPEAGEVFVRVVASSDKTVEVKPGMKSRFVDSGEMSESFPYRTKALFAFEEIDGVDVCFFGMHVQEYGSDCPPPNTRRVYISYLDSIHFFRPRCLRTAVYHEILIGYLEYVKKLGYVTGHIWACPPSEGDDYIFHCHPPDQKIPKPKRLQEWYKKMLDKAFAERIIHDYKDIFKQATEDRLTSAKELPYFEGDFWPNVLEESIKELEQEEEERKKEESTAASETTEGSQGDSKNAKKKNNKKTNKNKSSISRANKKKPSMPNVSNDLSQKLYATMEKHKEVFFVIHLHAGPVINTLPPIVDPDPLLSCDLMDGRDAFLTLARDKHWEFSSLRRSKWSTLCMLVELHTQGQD
Summary of the method: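 CREBBP (1084-1701) preincubated with compound 30 min at RT, then substrate mix (biotin-H3 11-25 K14R/K23R peptide, acetyl-CoA) added for 30 min at RT. Reaction stopped with formic acid, neutralised with sodium bicarbonate. Peptide acetylation read by SAMDI mass spectrometry to derive IC50.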

[4] = Homo sapiens, 647-V, high throughput proliferation
[5] = H3K18Ac in-cell western, HB-CLS-2 cells
[6] = Homo sapiens, 647-V, high throughput proliferation, 647V cells
[7] = 2 h, H3K18Ac in HB-CLS-2 cells, 2 hrs compound incubation
[8] = Homo sapiens, 647-V, 168 h, 647V cells, day 7, CellTiter-Glo

Row | IC50 ([1]; H3K18Ac in-cell western) | IC50 [1, 5] | Compound | IC50 [2, 6] | also measured
1 | – | 20 µM | CCc1cc(-c2nc(C(=O)N(C)Cc3cnn(CC)c3C)c3cc(Cl)ccc3n2)ccc1OCCCN(C)C(=O)OC(C)(C)C [Compound 209] | 8.8 µM | –
2 | – | 20 µM | CCn1ncc(CN(C)C(=O)c2nc(-c3cc(Cl)cc(OCCCN(C)C(=O)OC(C)(C)C)c3)nc3ccc(Cl)cc23)c1C [Compound 233] | 20 µM | –
3 | – | 20 µM | CCn1ncc(CN(C)C(=O)c2cc(-c3ccc(OCCCNC)cn3)nc3ccc(Cl)cc23)c1C [Compound 219] | 20 µM | –
4 | – | 20 µM | CCn1ncc(CN(C)C(=O)c2nc(-c3cn(CCCN(C)C(=O)OC(C)(C)C)cn3)nc3ccc(Cl)cc23)c1C [Compound 230] | 20 µM | –
5 | 0.43 µM | – | CCn1ncc(CN(C)C(=O)c2nc(-c3ccc4nc[nH]c4c3)nc3ccc(Cl)cc23)c1C [Compound 47] | – | IC50 [2, 4]: 0.42 µM
6 | 20 µM | – | CCn1ncc(CN(C)C(=O)c2nc(-n3cc4c(n3)CN(C(=O)OC(C)(C)C)CC4)nc3ccc(Cl)cc23)c1C [Compound 193] | – | IC50 [2, 4]: 8.2 µM
7 | 19 µM | – | CCn1ncc(CN(C)C(=O)c2nc(-c3cc(Cl)cc(OCCCNC(=O)OC(C)(C)C)c3)nc3ccc(Cl)cc23)c1C [Compound 180] | – | IC50 [2, 4]: 20 µM
8 | – | 20 µM | CCn1ncc(CN(C)C(=O)c2nc(-c3ccc(OCCCN(C)C(=O)OC(C)(C)C)cc3)nc3ccc(Cl)cc23)c1C [Compound 242] | – | IC50 [3]: 57 µM
9 | 17 µM | – | CCn1ncc(CN(C)C(=O)c2cc(-n3cc4c(n3)CN(C(=O)OC(C)(C)C)CC4)nc3ccc(Cl)cc23)c1C [Compound 178] | – | IC50 [2, 4]: 4.8 µM
10 | – | 3.2 µM | CCn1ncc(CN(C)C(=O)c2nc(-c3cc(Cl)ccc3Cl)nc3ccc(Cl)cc23)c1C [Compound 297] | – | IC50 [3]: 1.8 µM

Continued, compound first:

Row | Compound | IC50 ([1]; H3K18Ac in-cell western) | IC50 [1, 5] | IC50 [2, 6] | also measured
11 | CCn1ncc(CN(C)C(=O)c2nc(-n3ncc4c3CN(C(=O)OC(C)(C)C)CC4)nc3ccc(Cl)cc23)c1C [Compound 192] | 20 µM | – | – | IC50 [2, 4]: 9.4 µM
12 | CCn1ncc(CN(C)C(=O)c2nc(-c3ccc4[nH]cnc4c3)nc3ccc(Cl)cc23)c1C [Compound 57] | 0.66 µM | – | – | IC50 [2, 4]: 0.5 µM
13 | CCn1ncc(CN(C)C(=O)c2nc(N3CCN(C)CC3)nc3ccc(Cl)cc23)c1C [Compound 245] | – | 20 µM | 20 µM | –
14 | CCn1ncc(CN(C)C(=O)c2nc(N3CCCN(C)CC3)nc3ccc(Cl)cc23)c1C [Compound 196] | 20 µM | – | – | IC50 [2, 4]: 17 µM
15 | CCn1ncc(CN(C)C(=O)c2cc(-c3cn(Cc4ccc(OC)cc4)c(CN(C)C)n3)nc3ccc(Cl)cc23)c1C [Compound 239] | – | 20 µM | 20 µM | –
16 | CCn1ncc(CN(C)C(=O)c2nc(-c3cn(CCN(C)C(=O)OC(C)(C)C)cn3)nc3ccc(Cl)cc23)c1C [Compound 240] | – | 20 µM | 20 µM | –
17 | CCn1ncc(CN(C)C(=O)c2nc(-c3ccc4nc[nH]c4c3)nc3ccc(Cl)cc23)c1C [Compound 59] | 0.67 µM | – | – | IC50 ([2]; high throughput proliferation): 0.44 µM
18 | CCc1[nH]cc(CN(C)C(=O)c2nc(-c3ccccc3Cl)nc3ccc(Cl)cc23)c1C [Compound 221] | – | 20 µM | 10 µM | –
19 | CCc1ncc(CN(C)C(=O)c2cc(-c3ccc(NCC(O)CN(C)C)c(C)n3)nc3ccc(COC)cc23)n1C (stereo not drawn) [Compound 644] | – | – | – | IC50 [1, 7]: 0.701 µM; IC50 [2, 8]: 0.269 µM
20 | Cc1n[nH]c(C)c1CN(C)C(=O)c1nc(-c2ccccc2Cl)nc2ccc(Cl)cc12 [Compound 229] | – | 20 µM | 20 µM | –
21 | CCn1ncc(CN(C)C(=O)c2nc(-c3ccc(OCCNC)cn3)nc3ccc(Cl)cc23)c1C [Compound 238] | – | 20 µM | 20 µM | –
22 | CCn1ncc(CN(C)C(=O)c2nc(-c3cccc(Cl)c3Cl)nc3ccc(Cl)cc23)c1C [Compound 259] | – | 0.18 µM | – | IC50 [3]: 0.0026 µM
23 | CCn1ncc(CN(C)C(=O)c2cc(-c3ccccc3Cl)nc3ccc(Cl)cc23)c1C [Compound 95] | 1.8 µM | – | – | IC50 [3]: 0.25 µM
24 | CCn1ncc(CN(C)C(=O)c2cc(-c3ccc(NCC(O)CN(C)C)c(C)n3)nc3ccc(COC)cc23)c1C (stereo not drawn) [Compound 643] | – | – | – | IC50 [1, 7]: 0.327 µM; IC50 [2, 8]: 0.233 µM
